Results taken from patent publication US6924314B2, “Compounds for the treatment of metabolic disorders” (Wellstat Therapeutics Corporation, priority 2001, dated 2005).

Columns and labels:
[1] = test system: mice with severe insulin-dependent diabetes; experiment: Mortality in severe insulin-dependent diabetes (multiple high doses of STZ); type: in vivo; details: STZ 75 mg/kg i.p. x5 balb/C mice, 30 mg/kg/day oral, after three weeks of daily treatment
Description: Female balb/C mice (19 wks of age at start of experiment) were challenged with multiple high doses of STZ (75 mg/kg i.p. on 5 consecutive days). Animals were then divided in two groups (20 mice/group) matched for severity of diabetes. Four days after the last dose of STZ, treatments were initiated. One group received Vehicle (0.4 ml of 0.75% HPMC, p.o.), and the other group received oral COMPOUND AA (30 mg/kg/day). After three weeks of daily treatment, cumulative mortality in the Vehicle Control group was 19/20 mice. In contrast, only 5/20 of the COMPOUND AA mice died during this time.

[2] = test system: ob/ob obese diabetic mice; experiment: Acute hypoglycemic effect in ob/ob obese diabetic mice: Experiment 1; type: in vivo; details: single oral dose by gavage, 6 hours
Description: Male ob/ob diabetic mice were randomized into groups of five animals each. Body weights were 50-55 g and blood glucose was approximately 300 mg/dL in the fed state. A single oral dose of a test substance suspended in 0.5% carboxymethylcellulose vehicle was administered by gavage. Blood glucose was measured in blood droplets obtained by nicking a tail vein with a razor using glucometer test strips and a Glucometer Elite XL device (Bayer) at 0, 0.5, 2, 4, 6 and 18 hours after the initial dosing. A 10% reduction in blood glucose versus oral vehicle is considered a positive screening result. Blood glucose reductions were generally maximal at 6 hours after drug administration.

[3] = test system: streptozotocin diabetic mice; experiment: Serum chemistries and body weights in streptozotocin diabetic mice treated with oral Compound AH for 14 weeks; type: in vivo, Balb/C mice
Description: Streptozotocin (STZ) is a toxin that selectively destroys insulin-producing pancreatic beta cells, and is widely used to induce insulin-dependent diabetes in experimental animals.
Female Balb/C mice (8 weeks old; 18-20 grams body weight) were treated with streptozotocin (STZ) (50 mg/kg i.p. on each of five consecutive days). Fourteen days after the last dose of STZ, blood glucose was measured to verify that the animals were diabetic, and the mice were divided into two groups of 5 animals each, one group receiving Compound AH (250 mg/kg) daily by oral gavage, and the other receiving vehicle (0.75% hydroxypropylmethylcellulose, a suspending agent, in water). […] Blood samples were taken periodically for determination of blood glucose concentrations, and body weights were also recorded.
Body weights and blood glucose, triglyceride and cholesterol concentrations 14 weeks after the beginning of drug treatment are shown in Table 1.

[4] = test system: mice with lethal insulin-dependent diabetes; experiment: Survival of mice with lethal insulin-dependent diabetes (single dose streptozotocin); type: in vivo, Balb/C mice; details: 250 mg/kg/day oral gavage
Description: Female Balb/C mice (14 weeks old) were treated with a single dose of streptozotocin (175 mg/kg i.p.) to induce severe insulin-dependent diabetes. Seven days later, mice were divided into three treatment groups: Compound AH, pioglitazone, and vehicle. Mice were treated daily via oral gavage, and survival was monitored over time.

[5] = test system: NOD mice; experiment: Incidence of spontaneous diabetes and mortality in NOD mice; type: in vivo; details: 200 mg/kg/day oral, seven months
Description: A substantial proportion of NOD (“non-obese diabetic”) mice develop insulin-dependent diabetes as a consequence of spontaneous autoimmune destruction of pancreatic islet cells. Two groups of 20 NOD mice (6 weeks old) were treated daily with either oral Vehicle (0.4 ml of 0.75% hydroxypropyl methylcellulose in water; HPMC) or Compound AH (200 mg/kg/day) suspended in HPMC. The incidence of mortality due to spontaneous development of severe insulin-dependent diabetes was monitored over a period of seven months. At the end of this time, 13/20 mice treated with vehicle had died of uncontrolled diabetes, whereas only 5/20 mice treated with Compound AH had died.

[6] = streptozotocin diabetic Balb/C mice, 250 mg/kg daily oral gavage, 14 weeks

Row | SMILES | cumulative mortality [1] | % Reduction vs Control [2] [%] | Blood Glucose after 6 hours [2] [mg/dL] | blood glucose concentrations ([3]; 250 mg/kg daily oral, after several weeks of treatment) | metabolic abnormalities associated with insulin-dependent diabetes ([3]; oral treatment, 250 mg/kg daily) | Body Weight [3, 6] [g] | Cholesterol [3, 6] [mg/dL] | Glucose [3, 6] [mg/dL] | Triglycerides [3, 6] [mg/dL] | body weights of survivors at 12 weeks [4] | Survivors (Survival at 12 weeks) ([4]; STZ 175 mg/kg i.p. Balb/C mice) | mortality due to spontaneous severe insulin-dependent diabetes [5]
1 | O=C(O)CCC(=O)c1ccc(OCc2ccccc2F)cc1 [Compound AA, 4-(4-(2-Fluorobenzyloxy)phenyl)-4-oxobutyric acid] | 5/20 | −18.5 ± 8.4 | 242 ± 25 | – | – | – | – | – | – | – | – | –
2 | O=C(O)CCC(=O)c1ccc(OCc2c(F)cccc2F)cc1 [Compound AH, 4-(4-(2,6-Difluorobenzyloxy)phenyl)-4-oxobutyric acid] | – | −24.9 ± 3.7 | 223 ± 11 | began to decrease toward baseline | significant amelioration | 21.7 ± 0.8 | 82 ± 2 | 207 ± 12 | 62 ± 7 | recovered and were maintained in the normal range | 4/5 | 5/20
